Experimental data: US12083101B2, “Biaryl derivatives as YAP/TAZ-TEAD protein-protein interaction inhibitors” (Novartis AG, priority 2020, dated 2024)
Where two headings read alike, the source gives them in different places.

How the values were obtained:
[1] = biological target: Avi-humanTEAD4 217-434 / Cy5 labeled humanYAP 60-100 (Homo sapiens (Human), UniProt Q15561); test: TR-FRET YAP-TEAD4 in-vitro biochemical assay; type: binding; conditions: 1 nM Avi-humanTEAD4 217-434, 20 nM Cy5-humanYAP 60-100, 1 h room temperature
Sequence of Avi-humanTEAD4 217-434 / Cy5 labeled humanYAP 60-100 (Q15561 217-434): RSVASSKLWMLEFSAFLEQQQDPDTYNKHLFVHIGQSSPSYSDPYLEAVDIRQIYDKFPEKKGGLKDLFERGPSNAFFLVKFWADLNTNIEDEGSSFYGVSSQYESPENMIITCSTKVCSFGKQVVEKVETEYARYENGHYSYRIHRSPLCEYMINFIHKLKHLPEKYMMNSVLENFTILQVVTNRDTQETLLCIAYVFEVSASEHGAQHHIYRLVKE

[2] = system: NCI-H2052 Tet-On shYAP_2371 pLenti6 MCAT_Luc cells (YAP-dependent transcription); test: YAP reporter gene activity assay (MCAT-luciferase), NCI-H2052; type: cell-based; conditions: 24 hours incubation, BrightGlo luminescence
How it was run: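 Luminescence was read 5 min after BrightGlo, following 24 h at 37 °C of compound exposure (eleven 2-fold dilutions, DMSO normalized to 0.1%). Cells were NCI-H2052 with a YAP-responsive MCAT-luciferase and a Tet-inducible shRNA against YAP1 3′UTR. Cell-free background was removed, values were normalized to vehicle, and IC50 was fitted with four parameters.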

[3] = system: NCI-H2052 Tet-On shYAP_2371 pLenti6 MCAT_Luc cells; test: Proliferation assay (resazurin), NCI-H2052; type: cell-based; conditions: 72 hours incubation
How it was run: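 The NCI-H2052 line carries a Tet-inducible shRNA against the YAP1 3′UTR and an MCAT luciferase reporter. The day after seeding, it received eleven 2-fold compound dilutions at 0.1% DMSO, and viability was read by resazurin fluorescence.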

[4] = system: MKN-45/Ubc-luc cells; test: Proliferation assay (resazurin), MKN-45; type: cell-based; conditions: 72 hours incubation
[5] = system: MKN-45/Ubc-luc cells; test: Reporter gene specificity control (Ubc-luciferase), MKN-45
[6] = Homo sapiens, MKN-45, 24 h, read-out: Reporter gene assay MKN-45 IC50 [μM], MKN-45/Ubc-luc cells (YAP deleted, specificity control), 24 hours incubation
[7] = read-out: Reporter gene assay MKN-45 IC50, MKN-45/Ubc-luc cells (YAP deleted, specificity control), 24 hours incubation

IC50 [1] [nM] | IC50 ([2]; Homo sapiens, NCI-H2052, 24 h) [nM] | GI50 ([3]; Homo sapiens, NCI-H2052, 72 h) [nM] | GI50 ([4]; Homo sapiens) [nM] | IC50 [5, 6] [µM] | IC50 [2] [nM] | GI50 [3] [nM] | GI50 [4] [nM] | IC50 [5, 7] [µM] | SMILES
5 | 84 | 188 | > 10000 | > 10 | – | – | – | – | NC(=O)c1ccc(OC(F)F)c(F)c1-c1c(Cl)ccc2c1[C@H](O)[C@@](CNC1CCC1)(c1ccccc1)O2 (atropisomer, axis not shown) [Example 96, 2-((2S,3S,4S)-5-Chloro-2-((cyclobutylamino)methyl)-3-hydroxy-2-phenyl-2,3-dihydrobenzofuran-4-yl)-4-(difluoromethoxy)-3-fluorobenzamide]
6 | 65 | 141 | > 10000 | > 10 | – | – | – | – | COc1ccc(C(N)=O)c(-c2c(Cl)c(F)cc3c2[C@H](C)[C@@](CN[C@H]2CC[C@](C)(O)CC2)(c2cccnc2)O3)c1F (atropisomer, axis not shown) [Example 127, 2-((2S,3S,4S)-5-Chloro-6-fluoro-2-((((trans)-4-hydroxy-4-methylcyclohexyl)amino)methyl)-3-methyl-2-(pyridin-3-yl)-2,3-dihydrobenzofuran-4-yl)-3-fluoro-4-methoxybenzamide]
2 | 23 | 34 | > 10000 | > 10 | – | – | – | – | C[C@H](O)COc1ccc(C(N)=O)c(-c2c(Cl)c(F)cc3c2[C@H](C)[C@@](CN[C@H]2CC[C@@](C)(O)CC2)(c2ccccc2)O3)c1F (atropisomer, axis not shown) [Example 114b, 2-((2S,3S,4S)-5-chloro-6-fluoro-2-((((cis)-4-hydroxy-4-methylcyclohexyl)amino)methyl)-3-methyl-2-phenyl-2,3-dihydrobenzofuran-4-yl)-3-fluoro-4-((S)-2-hydroxypropoxy)benzamide]
8 | 136 | 256 | > 10000 | > 10 | – | – | – | – | CO[C@H]1c2c(cc(F)c(Cl)c2-c2c(C(N)=O)ccc(OCCO)c2F)O[C@@]1(c1ccccc1)C1CCCN1 (stereo partly drawn) [Example 166, 2-((2S,3S,4S)-5-chloro-6-fluoro-3-methoxy-2-phenyl-2-(pyrrolidin-2-yl)-2,3-dihydrobenzofuran-4-yl)-3-fluoro-4-(2-hydroxyethoxy)benzamide]
2 | 22 | 28 | > 10000 | > 10 | – | – | – | – | C[C@H]1c2c(cc(F)c(Cl)c2-c2c(C(N)=O)cnc(OCCO)c2F)O[C@]1(CN[C@H]1CC[C@](C)(O)CC1)c1ccccc1 (atropisomer, axis not shown) [Example 119]
2 | 20 | 36 | > 10000 | > 10 | – | – | – | – | CNC(=O)c1ccc(OCCO)c(F)c1-c1c(Cl)c(F)cc2c1[C@H](C)[C@@](CN[C@H]1CC[C@](C)(O)CC1)(c1ccccc1)O2 (atropisomer, axis not shown) [Example 121, 2-((2S,3S,4S)-5-Chloro-6-fluoro-2-((((trans)-4-hydroxy-4-methylcyclohexyl)amino)methyl)-3-methyl-2-phenyl-2,3-dihydrobenzofuran-4-yl)-3-fluoro-4-(2-hydroxyethoxy)-N-methylbenzamide]
6 | 102 | 166 | > 10000 | > 10 | – | – | – | – | C[C@H](O)COc1ccc(C(N)=O)c(-c2c(Cl)ccc3c2C[C@@](CN)(c2ccccc2)O3)c1F (atropisomer, axis not shown) [Example 13, 2-((2S,4S)-2-(aminomethyl)-5-chloro-2-phenyl-2,3-dihydrobenzofuran-4-yl)-3-fluoro-4-((S)-2-hydroxypropoxy)benzamide]
2 | 15 | 36 | > 10000 | > 10 | – | – | – | – | NC(=O)c1ccc(OCCO)c(F)c1-c1c(Cl)c(F)cc2c1C[C@@](CN[C@H]1C[C@H](CO)C1)(c1ccccc1)O2 (atropisomer, axis not shown) [Example 64a, 2-((2S,4S)-5-chloro-6-fluoro-2-((((trans)-3-(hydroxymethyl)cyclobutyl)amino)methyl)-2-phenyl-2,3-dihydrobenzofuran-4-yl)-3-fluoro-4-(2-hydroxyethoxy)benzamide]
1 | – | – | – | – | 26 | 81 | > 10000 | > 10 | COc1ccc(C(N)=O)c(-c2c(Cl)ccc3c2C[C@@](CN[C@H]2CC[C@H](O)CC2)(c2ccccc2)O3)c1F (relative stereo) [Example 27a, 2-((2S,4S)-5-Chloro-2-(((trans-4-hydroxycyclohexyl)amino)methyl)-2-phenyl-2,3-dihydrobenzofuran-4-yl)-3-fluoro-4-methoxybenzamide]
3 | – | – | – | – | 18 | 21 | 16000 | 11 | COc1ccc(C(N)=O)c(-c2c(Cl)c(F)cc3c2[C@H](C)[C@@](CN)(c2ccccc2)O3)c1F [Example 176, 2-((2S,3S,4S)-2-(Aminomethyl)-5-chloro-6-fluoro-3-methyl-2-phenyl-2,3-dihydrobenzofuran-4-yl)-3-fluoro-4-methoxybenzamide]
2 | – | – | – | – | 22 | 55 | > 10000 | > 10 | C[C@H]1c2c(ccc(Cl)c2-c2c(C(N)=O)ccc(OC(F)F)c2F)O[C@]1(CN[C@H]1CC[C@](C)(O)CC1)c1ccccc1 (relative stereo) [Example 104b, 2-((2S,3S,4S)-5-chloro-2-((((trans)-4-hydroxy-4-methylcyclohexyl)amino)methyl)-3-methyl-2-phenyl-2,3-dihydrobenzofuran-4-yl)-4-(difluoromethoxy)-3-fluorobenzamide]
4 | 50 | 35 | > 10000 | > 10 | – | – | – | – | CNC[C@@]1(c2ccccc2)Cc2c(cc(F)c(Cl)c2-c2c(C(N)=O)cnc(OCCOC)c2F)O1 (atropisomer, axis not shown) [Example 47, 4-((2S,4S)-5-Chloro-6-fluoro-2-((methylamino)methyl)-2-phenyl-2,3-dihydrobenzofuran-4-yl)-5-fluoro-6-(2-methoxyethoxy)nicotinamide]
4 | 74 | 85 | > 10000 | > 10 | – | – | – | – | CNC(=O)c1ccc(OC[C@H](C)O)c(F)c1-c1c(Cl)c(F)cc2c1[C@H](C)[C@](c1ccccc1)(C1CCN1)O2 (stereo partly drawn) [Example 150, 2-((2S,3S,4S)-2-(Azetidin-2-yl)-5-chloro-6-fluoro-3-methyl-2-phenyl-2,3-dihydrobenzofuran-4-yl)-3-fluoro-4-((S)-2-hydroxypropoxy)-N-methylbenzamide]
3 | 64 | 99 | > 10000 | > 10 | – | – | – | – | NC[C@@]1(c2ccccc2)Cc2c(ccc(Cl)c2-c2c(C(N)=O)ccc(OCCO)c2F)O1 (atropisomer, axis not shown) [Example 10, 2-((2S,4S)-2-(aminomethyl)-5-chloro-2-phenyl-2,3-dihydrobenzofuran-4-yl)-3-fluoro-4-(2-hydroxyethoxy)benzamide]
